{"source": "patent US20250040539A1", "about": "“COMPOSITION COMPRISING AN ANTIMICROBIAL AGENT AND A CARBOXAMIDE” (BASF SE, priority 2021, published 2025)", "system": "bacterial mix: Escherichia coli DSM 1576, Alcaligenes faecalis DSM 13644, Pseudomonas aeruginosa ATCC 15442, Staphylococcus aureus ATCC 6538, Burkholderia …", "assay": "Preservative activity in a manual dishwashing composition (MDW, pH 7.1) with 1.0% 2-phenoxyethanol against bacterial mix (Example 2.5)", "assay_type": "cell-based", "settings": "MDW + 1.0% PE, no amide (Comparative)", "experimental": "A manual dish wash detergent (MOW) of pH 7.1 containing the following components was used:\nThe samples were contaminated with a bacterial mix consisting of: • Escherichia coli DSM 1576 • Alcaligenes faecalis DSM 13644 • Pseudomonas aeruginosa ATCC 15442 • Staphylococcus aureus ATCC 6538 • Burkholderia cepacia DSM 7288 • Pseudomonas putida DSM 12735\nThe samples were inoculated with the bacterial mix at day 0 and 7 to obtain 10E+06 to 10E+07 CFU/ml inoculation in the test sample and stored at 25° C. for 21 days. CFU was determined before re-inoculation at day 7 and on day 21.\nAny CFU value at day 7 (d7) or day 21 (d21) obtained with a sample according to the invention containing 2-phenoxyethanol and amide (MDW+1.0% PE+1.0% Amide) lower than the respective value of the comparative example (MDW+1% by weight of 2-phenoxyethanol) indicates a better performance."}
{"compound": "OCCOc1ccccc1", "note": "[PE, 2-phenoxyethanol, reference compound]", "values": [{"measurement": "d7 [CFU/ml]", "setting": "day 7", "result": 820, "unit": "CFU/ml"}, {"measurement": "d21 [CFU/ml]", "setting": "day 21", "result": 135, "unit": "CFU/ml"}]}
